Assay results published in US6204220A, “Substituted 2-oxo-3-alkynoic acids and methods of use thereof” (Rutgers, The State University of New Jersey, priority 1999, dated 2001).
“Also recorded” adds a separate entry of the source. Where two headings read alike, the source gives them in different places. Each block holds one compound with its values, some of them ahead of it.

Assays:
resolved E1 [1] = target: T1, resolved E1 (Escherichia coli, UniProt P0AFG8); assay: Inactivation of resolved E1 component (activity after reconstitution with E2-E3 subcomplex); format: biochemical, E. coli; conditions: for effect on catalytic activity of resolved E1 (in words): data not shown
T1 construct: made in house; host or cells: resolved from PDHc expressed in E. coli JRG1342
Method: Resolution of the E1 component from PDHc. […] PDHc was dialyzed against 50 mM Tris buffer, pH 9.0, containing 0.1 mM benzamidine.HCl, 0.15 M NaCl, 0.1 mM PMSF for 2 h, before applying to a column equilibrated and eluted with the same buffer.
(§1) Activity and related measurements on PDHc. The overall enzymatic reaction of the PDH complex was assayed using a Varian DMS 300 spectrophotometer or the Cobas Bio (Roche Diagnostics, Somerville, N.J.) automated centrifugal analyzer, monitoring the pyruvate-dependent reduction of NAD^+ at 340 nm. The reaction medium contained in 1 mL (DMS 300) or 0.25 mL (Cobas-Bio) test volume: 0.1 M Tris-HCl, pH 8.0; 1 mM MgCl2; 2 mM sodium pyruvate; 2.5 mM NAD^+; 0.052-0.2 mM coenzyme A; 0.2 mM ThDP; and 2.6 mM DTT at 27° C. The reaction was initiated either by adding enzyme to a mixture of all other components, or by adding CoA.
(§2) One unit of activity is defined as the amount of NADH produced (μmol) per min per mg protein. The activity of resolved E1 was measured after reconstitution with excess E2-E3 subcomplex using the NADH assay for PDHc activity.
(§3) Inactivation of 1-lip and 3-lip PDH complexes and resolved E1 component by 2-oxo-3-alkynoic acids. Intact 1-lip or 3-lip PDH complexes (0.050-0.1 mg) or resolved E1 component (0.05-0.09 mg) were incubated in the dark with 5 mM MgCl2, […] of 2-oxo-3-alkynoic acids in 20 mM KH2 PO4 buffer, pH 7.5 at room temperature in a total volume 0.5 mL. The initial activity (100%) was assayed prior to the addition of 2-oxo-3-alkynoic acids. Samples (50 μL) were withdrawn periodically and diluted into 1 mL of assay solution, containing all components necessary for assay of the overall activity. The activity of untreated enzyme was stable during the time of inactivation.

[2] = target: T2, PDC from Saccharomyces cerevisiae (Saccharomyces cerevisiae, UniProt P06169); conditions: cited from earlier work; for inhibition of brewer's yeast PDC (in words): Chiu & Jordan, 1994
T2 sequence (P06169 2-563 limits assumed): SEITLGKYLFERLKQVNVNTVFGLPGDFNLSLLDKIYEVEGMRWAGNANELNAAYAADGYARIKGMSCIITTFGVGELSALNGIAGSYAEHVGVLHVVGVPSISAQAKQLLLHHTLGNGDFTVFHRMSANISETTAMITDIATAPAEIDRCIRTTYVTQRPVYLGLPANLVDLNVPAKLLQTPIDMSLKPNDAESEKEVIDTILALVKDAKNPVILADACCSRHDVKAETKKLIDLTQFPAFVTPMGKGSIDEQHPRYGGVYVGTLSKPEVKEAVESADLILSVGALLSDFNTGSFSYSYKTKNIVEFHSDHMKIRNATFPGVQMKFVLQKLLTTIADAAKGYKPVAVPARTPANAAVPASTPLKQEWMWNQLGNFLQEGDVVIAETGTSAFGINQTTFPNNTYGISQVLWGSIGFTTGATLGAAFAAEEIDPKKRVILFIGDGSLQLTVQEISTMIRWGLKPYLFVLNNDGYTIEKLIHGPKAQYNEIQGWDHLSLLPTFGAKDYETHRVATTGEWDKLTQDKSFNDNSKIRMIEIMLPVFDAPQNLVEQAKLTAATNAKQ

[3] = target: T3, POX from Lactobacillus plantarum (Lactiplantibacillus plantarum, UniProt P37063); conditions: cited from earlier work
T3 sequence (P37063 1-603): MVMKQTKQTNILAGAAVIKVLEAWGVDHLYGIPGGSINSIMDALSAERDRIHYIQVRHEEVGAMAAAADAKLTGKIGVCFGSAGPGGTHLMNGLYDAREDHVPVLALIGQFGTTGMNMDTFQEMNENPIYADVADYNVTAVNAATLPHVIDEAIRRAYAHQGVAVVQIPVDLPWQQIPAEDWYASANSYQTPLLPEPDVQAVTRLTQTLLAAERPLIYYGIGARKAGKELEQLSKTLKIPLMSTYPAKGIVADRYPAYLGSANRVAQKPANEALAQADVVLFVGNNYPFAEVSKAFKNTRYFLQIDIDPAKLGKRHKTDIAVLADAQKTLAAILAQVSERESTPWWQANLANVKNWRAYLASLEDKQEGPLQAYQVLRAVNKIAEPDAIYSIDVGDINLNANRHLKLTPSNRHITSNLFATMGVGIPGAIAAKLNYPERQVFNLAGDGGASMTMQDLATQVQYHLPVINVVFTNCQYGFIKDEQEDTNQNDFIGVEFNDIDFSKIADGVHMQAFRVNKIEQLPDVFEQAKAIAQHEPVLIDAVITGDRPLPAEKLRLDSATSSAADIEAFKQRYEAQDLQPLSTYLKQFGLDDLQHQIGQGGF

PDHc from E. coli = PDHc from E. coli (Escherichia coli, UniProt P0AFG8); conditions: cited from earlier work
PDHc = PDHc (Escherichia coli, UniProt P0AFG8); assay: Inactivation of 1-lip and 3-lip PDH complexes by 2-oxo-3-alkynoic acids (overall NADH assay); format: biochemical, E. coli; design: made in house; host or cells: E. coli JRG1342 (PDHc null) with Ptac plasmid pGS501 (1-lip) or pGS523 (3-lip); conditions: for kapp, slower phase of inactivation: PDHc
Text: Bacterial strains and plasmids for PDHc. Derivatives of the PDHc null strain, E. coli JRG1342 contained Ptac expression plasmids encoding PDHc with E2 chains bearing three lipoyl domains (3-lip PDHc; pGS523, the wild type parental complex), or a single lipoyl domain in each E2 subunit (1-lip PDHc; pGS501), and variant 1-lip PDH complexes with mutations in the E1 gene leading to C259S (pGS457) and C259N (pGS596) substitutions (Machado et al., 1992; Machado, 1993).
Purification of PDHc. Cultures for purification of 1-lip and 3-lip PDH complexes were grown at 37° C. in LB medium containing glucose (0.2%) and ampicillin (50 μg/mL). The PDH complexes were induced by adding IPTG to 60 μM as described by Russell et al. (1992). Cells were disrupted by ultrasonic treatment after preincubation with lysozyme (0.6 mg/mL final concentration) for 15 min. The PDHc was sedimented by ultracentrifugation (100,000×g for 3 h) and further purified by chromatography on a
Sephacryl S-400 HR column. Fractions containing PDHc were pooled and treated with ammonium sulfate to 70% saturation. The enzyme was dissolved in buffer A (20 mM potassium phosphate, pH 7.8, 2 mM Na2 EDTA, 1 mM PMSF, and 1 mM benzamidine.HCl) then dialyzed against the same buffer. The PDH complexes were stored in buffer A at -20° C.
as §1, §2, §3

[4] = target: T4, Pyruvate decarboxylase from Saccharomyces cerevisiae (Saccharomyces cerevisiae, UniProt P06169); assay: Inactivation of pyruvate decarboxylase (PDC); format: biochemical
T4 construct: made in house; host or cells: E. coli
T4 sequence (P06169 2-563 limits assumed): T2 sequence (P06169 2-563 limits assumed)
Method: Pyruvate decarboxylase from Saccharomyces cerevisiae was overexpressed in E. coli (Baburina et al., 1994), then purified according to Farrenkopf & Jordan (1992). It was assayed spectrophotometrically by coupling to alcohol dehydrogenase (Holzer et al., 1960).

[5] = target: T5, Pyruvate oxidase from Lactobacillus plantarum (Lactiplantibacillus plantarum, UniProt P37063); assay: Inactivation of pyruvate oxidase (POX); format: biochemical; conditions: for kinact/KI: read-out: kc/Ki,c (converted)
T5 construct: purchased Boehringer Mannheim (a gift, not bought)
T5 sequence (P37063 1-603): T3 sequence (P37063 1-603)
Method: Pyruvate oxidase from Lactobacillus plantarum was a gift from Boehringer Mannheim and was assayed according to the manufacturer's instructions at 25° C. by measuring the rate of 4-quinonimine production from H2 O2, 3,5-dichlorophenolsulfonic acid and 4-aminoantipyrine in the presence of horseradish peroxidase, at 546 nm, using a Cobas-Bio (Roche Diagnostics, Somerville, N.J.) automated centrifugal analyzer. The assay reaction mixture (total vol. 0.25 mL) contained: 40 mM sodium pyruvate; 50 mM potassium phosphate buffer, pH 6.5 with 10% (v/v) glycerol; 6.8 mM 3,5-dichlorophenolsulfonic acid; 0.03% of 4-aminoantipyrine; and 5u/mL of horseradish peroxidase. The reaction was initiated by adding POX.

resolved E1 [6] = target: T1, resolved E1; conditions: read-out: Ki E1; calculated from data of Flournoy and Frey (1989); cited from earlier work
resolved E1 [7] = target: T1, resolved E1; conditions: read-out: Ki, reversible inhibition of resolved E1; dichorophenolindophenol assay, Lowe & Perham 1984; cited from earlier work
E1 = target: T6, E1 (Escherichia coli, UniProt P0AFG8); assay: Fluorescence measurements on binding to E1; design: species or system E. coli; conditions: 2 mM
T6 construct: made in house; host or cells: resolved from PDHc expressed in E. coli JRG1342
Method: Fluorescence measurements on the binding of 2-oxo-3-butynoic acid to E1. The fluorescence spectrum of apo-E1 (enzyme having no activity in the absence of ThDP) was measured using the SLM8100 spectrofluorimeter at 25° C. The excitation wavelength was 295 nm and the emission spectrum, presumably due to tryptophan, was recorded in the 300-450 nm range in a 1 mL or 3 mL quartz cuvette. The concentration of apo-E1 was 0.05-0.175 mg/mL in 20 mM KH2 PO4 buffer, pH 7.5. The excitation and emission monochromator slit widths were 4 nm. The V.3.0 software and KaleidaGraph computer program were used for data processing. The emission maximum for tryptophan (λ=335 nm) was determined by fitting the points from the peak using the KaleidaGraph computer program.

SMILES: CSS(C)(=O)=O [methylmethanethiolsulfonate, reference compound]
effect on catalytic activity of resolved E1 (in words) (resolved E1 [1]): not significantly affected

SMILES: CC(=O)[PH](=O)O [acetylphosphinate]
Ki ([2]; PDC from Saccharomyces cerevisiae): 470 µM
Ki ([3]; POX from Lactobacillus plantarum): 50 µM
Ki (PDHc from E. coli; PDHc from E. coli): 0.15 µM

SMILES: CCC(=O)C(=O)O [2-oxobutanoic acid]
substrate-like activity with POX ([3]; manufacturer's information): fails to show substrate-like activity
Km (PDHc from E. coli; Bisswanger (1981), read-out: Km (substrate of E. coli PDHc)): 3 mM

SMILES: O=C(O)c1cc(SSc2ccc([N+](=O)[O-])c(C(=O)O)c2)ccc1[N+](=O)[O-] [5,5'-dithiobis-(2-nitrobenzoic acid), reference compound]
effect on catalytic activity of resolved E1 (in words) (resolved E1 [1]): not significantly affected

SMILES: O=C(O)C(=O)C=Cc1ccccc1 [2-oxo-4-phenyl-3-butenoic acid, reference compound]
inhibition / inactivation of PDHc (in words) (PDHc): no effect
inhibition of brewer's yeast PDC (in words) [2]: inhibited

Ki ([4]; PDC, read-out: Ki): 700 µM
kinact ([4]; PDC, read-out: first order rate constant of inactivation (ki) (converted)): 0.00633 s⁻¹
kinact/KI ([4]; PDC, read-out: ki/Ki (converted)): 9 M⁻¹ s⁻¹
SMILES: O=C(O)C(=O)/C=C/c1ccc(Cl)cc1 [E-4(4-chlorophenyl)-2-oxo-3-butenoic acid, reference compound]

SMILES: CC#CC(=O)C(=O)O [2-oxo-3-pentynoic acid, 2-Oxo-3-pentynoic acid]
inhibition / inactivation of PDC (in words) [4]: inhibit
Ki (PDHc): 276 µM
partial protection by pyruvate on slow phase of inactivation (PDHc; 1-lip PDHc, 3 mM inhibitor, 5 mM pyruvate, 1 mM ThDP): 21%
kapp, slower phase of inactivation (PDHc; 3 mM inhibitor): 0.048 min⁻¹
kapp, slower phase of inactivation (PDHc; 4 mM inhibitor): 0.022 min⁻¹
kinact/KI (PDHc; pH 7.5, read-out: ki/Ki PDHc): 25.3 M⁻¹ s⁻¹
activity at 3000 µM (PDHc; read-out: residual activity after 26 min of inactivation, 1-lip PDHc, 3 mM inhibitor, absence of pyruvate): 14%
activity at 3000 µM (PDHc; read-out: residual activity after 26 min of inactivation, 1-lip PDHc, 3 mM inhibitor, presence of 5 mM pyruvate): 35%
inhibition / inactivation of POX (in words) [5]: inhibit
saturation by inhibitor ([5]; POX): no
kinact/KI ([5]; POX, from linear portion at high inhibitor concentrations (d)): 0.207 M⁻¹ s⁻¹
kinact/KI ([5]; POX, from linear portion at low inhibitor concentrations (c)): 0.0473 M⁻¹ s⁻¹

SMILES: O=C(O)c1cc[c]([Hg][Cl])cc1 [p-chloromercuribenzoate, reference compound]
molar excess required to inactivate E1 (resolved E1 [1]): 300 fold molar excess

SMILES: O=C(O)C(=O)C#Cc1ccccc1 [2-oxo-4-phenyl-3-butynoic acid, reference compound]
inhibition / inactivation of PDHc (in words) (PDHc): no effect; also recorded: no inhibition
inhibition of brewer's yeast PDC (in words) [2]: inhibited

SMILES: O=C(O)C(=O)CF [fluoropyruvate]
Ki (resolved E1 [6]): 28 µM
Ki (PDHc from E. coli; calculated from data of Flournoy and Frey (1989), read-out: Ki PDHc): 33 µM

SMILES: O=C(O)C(=O)CBr [bromopyruvate]
Ki (resolved E1 [7]): 90 ± 15 µM

SMILES: CC(=O)C(=O)O [pyruvate, reference compound]
decrease of fluorescence intensity of E1 (E1; absence of ThDP): 21%
decrease of fluorescence intensity of E1 (E1; with ThDP 0.2 mM and MgCl2 1 mM): about 15%
